Measured values reported in US11008549B2, “In vitro model for a tumor microenvironment” (HemoShear, LLC, priority 2013, dated 2021).
Read-outs that look alike come from different tables or passages of the source. One block for each molecule: values may come before it.

Legend:
cytochrome p450 1A/1B = assay: Cytochrome p450 1A/1B activity (P450-GLO) in rat hepatocytes after inducer; format: in vitro ADME; settings: controlled hemodynamics, 3-MC 0.1 μM, 48 hours, day 7
A549 tumor cells = assay: Growth of A549 tumor cells in tri-cultures under tumor capillary hemodynamics (PICOGREEN cell number); format: cell-based; settings: drug at human Cmax, day seven, tri-culture without exogenous ECM, hemodynamic flow and transport, vs vehicle
A549 cells = settings: static 2D cultures, cited from earlier work
[1] = cited from earlier work; for Cmax: steady state plasma Cmax, patients, established therapeutic dosing; for in vivo Cmax level achieved in humans: human
[2] = steady state plasma Cmax at therapeutic doses in mice, read-out: Mouse Cmax, cited from earlier work
cytochrome p450 3A = assay: Cytochrome p450 3A activity (P450-GLO) in rat hepatocytes after inducer; format: in vitro ADME; settings: controlled hemodynamics, dexamethasone 02.5 μM, 48 hours, day 7
primary rat hepatocytes [3] = assay: Toxicity of inducer concentration to rat hepatocytes under controlled flow; format: cell-based; settings: 50 μM, concentration recommended for inducing static cultures
primary rat hepatocytes [4] = assay: Gluconeogenesis assay (AMPLEX RED glucose in supernatant); format: cell-based; settings: 4 hours; for Effect (% Change) on glucose levels: insulin 2 nM or glucagon 100 nM; for decreased glucose levels by: insulin 2 nM
[5] = test system: primary human hepatocytes; settings: 72 h, 1 μM
Protocol: RT-PCR: Changes in metabolic, toxic, and insulin/glucose/lipid pathway genes were assessed by extracting RNA from hepatocytes from devices run under healthy and steatotic conditions at the end of the culture period (7 or 14 days) and performing RT-PCR on this RNA. The […] were removed from the devices and washed with PBS prior to scraping the cells off the porous membrane. Total RNA was isolated using a […] RNA Mini Kit (a kit for purification of total RNA from cells) and reverse transcribed to cDNA using the ISCRIPT cDNA Synthesis Kit (a cDNA synthesis kit). Primers were designed for the metabolic genes CYP1A1, CYP1A2, CYP3A2, MDR, and GST as well as the insulin/glucose/lipid pathway genes GPAT, ACC1, IRS-2, PPAR-γ, SREBP, ChREBP, LXR, SCD1, CPT1. Primer sequences are shown below in Table 3:
RNA expression was analyzed by real-time RT-PCR using IQ SYBR Green Supermix (a PCR reagent mixture for RT-PCR) and a CFX96 Real-Time System with C1000 Thermal Cycler (an RT-PCR detection system and thermal cycler). RNA data were normalized to endogenous expression of β2-microglobulin and reported as a relative quantity compared to healthy cultures.
Human genes assessed for metabolism and toxicity experiments included CYP1A1. CYP2A6, CYP2B6, CYP2C9, CYP2D6, CYP3A4, CYP3A5, GSTA1, UGT1A1, GSR, SORD, TXNRD1, and APEX1.
Cryopreserved primary human hepatocytes thawed and plated as described above were cultured in the cone-and-plate devices under controlled hemodynamics or were cultured under static conditions (controls) for 7 days before being exposed to different concentrations of chlorpromazine (0.1 μM, 1 μM, and 10 μM) or vehicle control for 72 hours. Live-dead staining was performed on the hepatocytes with ethidium-calcein stain. Hepatocytes were also incubated with MTT reagent for 1 hour to assess viability. RNA was extracted from additional segments and RT-PCR was performed to assess selected toxicity and metabolic genes.

[6] = test system: primary human hepatocytes; settings: 72 h
primary rat hepatocytes [7] = settings: 4 h, 1 μM
rat hepatocytes [8] = assay: In vitro fatty liver model, total triglycerides; format: cell-based; settings: 1.5 μM, high insulin/glucose fatty liver media, controlled hemodynamics, day 7
rat hepatocytes [9] = assay: In vitro fatty liver model, metabolic gene expression (RT-PCR); format: cell-based; settings: 1.5 μM, high insulin/glucose fatty liver media, controlled hemodynamics, day 7
primary rat hepatocytes [10] = assay: CDFDA/CDF bile canalicular imaging (cholestatic changes); format: cell-based; settings: controlled hemodynamic conditions, 48 hours
Protocol: For imaging of the biliary activity at canalicular junctions, sections of the porous membrane of the TRANSWELL were washed with PBS and incubated with media containing 10 μM carboxy-2,7-dichlorofluorescein diacetate (CDFDA) for 10 minutes. Samples were then washed with PBS and placed on glass slide for confocal imaging.
The hepatocytes were washed with PBS and immediately incubated with the substrate 10 uM carboxy-2,7-dichlorofluorescein diacetate (CDFDA). The cells were imaged by confocal microscopy during a 20-min exposure to the nonfluorescent substrate CDFDA to allow for the hydrolysis of the substrate to the highly fluorescent Mrp-2 substrate carboxy-2,7-dichlorofluorescein (CDF) and its active secretion into the bile canalicular structures.

primary rat hepatocytes [11] = assay: Gene expression of oxidative stress-related genes, MRP3 and MRP4 in rat hepatocytes; format: cell-based; settings: controlled hemodynamic conditions, in vivo/clinical plasma Cmax concentrations
[12] = No substrate, controlled hemodynamics
[13] = substrate Glycerol 2 mM, controlled hemodynamics
[14] = substrate Lactate/Pyruvate (20 mM/2 mM), controlled hemodynamics

Molecule: Cc1ccc2cc3c(ccc4ccccc43)c3c2c1CC3 [3-MC, 3-Methyl Cholanthrene]
1A/1B response (cytochrome p450 activity normalized to ATP) (cytochrome p450 1A/1B): 133.06

Molecule: Cn1cnc2c(F)c(Nc3ccc(Br)cc3Cl)c(C(=O)NOCCO)cc21 [AZD6244/Selumetinib, Selumetinib]
inhibited A549 growth (A549 tumor cells): 78%
IC50 (A549 cells): 5 µM
Cmax [1]: 1400 nM

Molecule: N.N.[Cl][Pt][Cl] [Cisplatin, cisplatin]
inhibited A549 growth (A549 tumor cells): 48%
IC50 (A549 cells; listed as cisplatin): > 6 µM
IC50 (A549 cells): > 6 µM
Cmax [1]: 3000 nM
Cmax ([2]; listed as cisplatin): > 10000 nM
Cmax [2]: > 10000 nM

3A response (cytochrome p450 activity normalized to ATP) (cytochrome p450 3A): 57.53
Molecule: C[C@@H]1C[C@H]2[C@@H]3CCC4=CC(=O)C=C[C@]4(C)[C@@]3(F)[C@@H](O)C[C@]2(C)[C@@]1(O)C(=O)CO [Dexamethasone, dexamethasone]
toxicity in the controlled flow system (primary rat hepatocytes [3]): toxic

glucose produced by the hepatocytes increased in the presence of the substrate (primary rat hepatocytes [4]; glycerol 2 mM, controlled hemodynamics): 67%
Molecule: OCC(O)CO [Glycerol, glycerol]

Molecule: NC1(c2ccc(-c3nc4ccn5c(=O)[nH]nc5c4cc3-c3ccccc3)cc2)CCC1 [MK2206]
inhibited A549 growth (A549 tumor cells): 44%
IC50 (A549 cells): 3 µM
Cmax [1]: 160 nM
Cmax [2]: 540 nM

Molecule: N.N.O=C([O-])C1(C(=O)[O-])CCC1.[Pt+2] [carboplatin]
in vivo Cmax level achieved in humans [1]: 37000 ng/mL

upregulation of APEX nuclease (multifunctional DNA repair enzyme) [5]: 2.8 fold
upregulation of glutathione reductase (GSR) [5]: 8.3 fold
upregulation of sorbitol dehydrogenase (SORD) [5]: 6.9 fold
upregulation of thioredoxin reductase 1 (TXNRD1) [5]: 5.5 fold
miRNA 122 released into supernatant, over vehicle controls (primary rat hepatocytes [7]): 6 fold
Molecule: CN(C)CCCN1c2ccccc2Sc2ccc(Cl)cc21 [chlorpromazine]
toxicity ([6]; 1 μM): 30.3%
toxicity ([6]; 10 μM): 46.4%
miRNA 122 levels in the supernatants compared to vehicle controls (primary rat hepatocytes [7]): did not cause any change in miRNA 122 levels

Molecule: C#Cc1cccc(Nc2ncnc3cc(OCCOC)c(OCCOC)cc23)c1 [erlotinib]
in vivo Cmax level achieved in humans [1]: 1000 ng/mL

total triglyceride content of hepatocytes (rat hepatocytes [8]): reduced total triglyceride content
Molecule: CCc1ccc(CCOc2ccc(CC3SC(=O)NC3=O)cc2)nc1 (centres unmarked) [pioglitazone]
expression of metabolic genes such as Cyp3A2 (rat hepatocytes [9]): restored the expression of metabolic genes

changes in bile canalicular pattern (primary rat hepatocytes [10]; 40 uM): much more prominent and extensive
Molecule: Cc1c(C)c2c(c(C)c1O)CCC(C)(COc1ccc(CC3SC(=O)NC3=O)cc1)O2 (centres unmarked) [troglitazone]
changes in bile canalicular pattern (primary rat hepatocytes [10]; 4 uM): changes in the canalicular pattern with visibly dilated canalicular structures
gene expression associated with toxic response (primary rat hepatocytes [11]): upregulation of oxidative stress-related genes and compensatory upregulation of MRP3 and MRP4 genes

Molecule: glucagon
Effect (% Change) on glucose levels (primary rat hepatocytes [4]; [12]): +51%
increased glucose levels by (primary rat hepatocytes [4]; absence of a substrate, glucagon 100 nM): 51%
Effect (% Change) on glucose levels (primary rat hepatocytes [4]; [13]): +15%
Effect (% Change) on glucose levels (primary rat hepatocytes [4]; [14]): +80%
increased glucose levels by further (primary rat hepatocytes [4]; substrate glycerol, glucagon 100 nM): 15%
increased glucose produced by (primary rat hepatocytes [4]; substrates lactate and pyruvate, glucagon 100 nM): 80%

Molecule: insulin
Effect (% Change) on glucose levels (primary rat hepatocytes [4]; [12]): −27%
decreased glucose levels by (primary rat hepatocytes [4]; absence of a substrate): 27%
Effect (% Change) on glucose levels (primary rat hepatocytes [4]; [13]): −38%
Effect (% Change) on glucose levels (primary rat hepatocytes [4]; [14]): −25%
decreased glucose levels by (primary rat hepatocytes [4]; substrate glycerol): 38%
decreased glucose levels by (primary rat hepatocytes [4]; substrates lactate and pyruvate): 25%
